Reference: the CheMixHub viscosity set
Several values for one entry are separate records, joined by “and”; a condition that tells them apart may be missing. Identical values can stand only once.

Experiments:
[1] = 101 kPa
[2] = xn = mol fraction of the nth substance listed

CC(=O)O.CC(=O)[O-].CC[NH+](CC)CCO
[1]
Details | viscosity [mPa·s]
293.15 K | 110.4
298.15 K | 80.19
303.15 K | 59.63
308.15 K | 45.32
313.15 K | 35.12
318.15 K | 27.71
323.15 K | 22.22

C1CC[NH2+]C1.CCCCCCCC(=O)[O-]
[1]
Details | viscosity [mPa·s]
293.15 K | 72.2
298.15 K | 62.71
303.15 K | 50.21
308.15 K | 42.89
313.15 K | 35.27

Cc1cccc(C)c1 + CCCCCCCCCC
viscosity [mPa·s], [2], 101 kPa
Details | x1 = 0.0494 | x1 = 0.1119 | x1 = 0.2059 | x1 = 0.2732 | x1 = 0.4032 | x1 = 0.4856 | x1 = 0.6058 | x1 = 0.7313 | x1 = 0.8131 | x1 = 0.9342
308.15 K | 0.7221 | 0.6889 | 0.6779 | 0.6545 | 0.6148 | 0.5958 | 0.5728 | 0.5498 | 0.5392 | 0.5253
313.15 K | 0.6818 | 0.6525 | 0.6364 | 0.6134 | 0.5805 | 0.5631 | 0.542 | 0.5191 | 0.5122 | 0.4972

OC1COCOC1 + CC(O)CO
viscosity [mPa·s], [2], 101 kPa
Details | x1 = 0.1001 | x1 = 0.2022 | x1 = 0.2993 | x1 = 0.3988 | x1 = 0.5 | x1 = 0.5991 | x1 = 0.7069 | x1 = 0.8004 | x1 = 0.9002
298.15 K | 40.55 | 35.63 | 31.87 | 28.95 | 26.18 | 23.35 | 20.25 | 17.68 | 15.39
308.15 K | 23.27 | 20.32 | 18.06 | 16.28 | 14.83 | 13.52 | 12.12 | 10.93 | 9.829
318.15 K | 14.08 | 12.09 | 10.67 | 9.707 | 9.031 | 8.445 | 7.772 | 7.179 | 6.681

O=S1(=O)CCCC1 + Cc1cccc(C)c1
viscosity [mPa·s], [2], 101.3 kPa
Details | x2 = 0.1117 | x2 = 0.2206 | x2 = 0.3267 | x2 = 0.4301 | x2 = 0.531 | x2 = 0.6294 | x2 = 0.7254 | x2 = 0.8191 | x2 = 0.9106
303.15 K | 6.231 | 4.214 | 2.961 | 2.171 | 1.65 | 1.275 | 1.007 | 0.7887 | 0.6551
323.15 K | 4.014 | 2.798 | 2.042 | 1.543 | 1.204 | 0.9507 | 0.7638 | 0.6203 | 0.5221

Cc1ccc(O)cc1 + C[N+](C)(C)CCO.[Cl-]
[2]
Details | viscosity
293.15 K, 101 kPa, x2 = 0.333 | 133.7 mPa·s
298.15 K, 101 kPa, x2 = 0.333 | 102 mPa·s
298.15 K, 101.33 kPa, x1 = 0.7 | 138.7 mPa·s
298.15 K, 101.33 kPa, x1 = 0.8 | 75.19 mPa·s and 55.19 mPa·s and 47.26 mPa·s
298.15 K, 101.33 kPa, x1 = 0.9 | 41.11 mPa·s
303.15 K, 101 kPa, x2 = 0.333 | 75.5 mPa·s
308.15 K, 101 kPa, x2 = 0.333 | 58.57 mPa·s
313.15 K, 101 kPa, x2 = 0.333 | 45.82 mPa·s
318.15 K, 101 kPa, x2 = 0.333 | 36.17 mPa·s
323.15 K, 101 kPa, x2 = 0.333 | 28.83 mPa·s
